Results taken from paper PMC11211886 (Frontiers in Pharmacology, 2024).

Tests used:
[1] = target: P-gp (Homo sapiens, UniProt P08183); test: in vitro; details: human, Caco-2
Text: (§1) The experimental conditions were similar to those of the permeability study.

[2] = test system: CYP1A2; test: in vitro; details: human; for fold induction at 48 h, 50 µM: Enzyme activity Fold Induction
Protocol: (§2) […] […] […] Enzyme activity for each CYP isoform was reported as a fold change over vehicle control and the percent of positive control (detailed calculation in Supplementary 1.1). Hepatocytes were harvested with a lysis buffer from RNeasy 96 Kit (Qiagen Inc., Germantown, MD, USA) to isolate RNA, which was analyzed by real-time quantitative polymerase chain reaction (RT-PCR). […] Emax (the maximal observed induction) and EC50 (the concentration that supports half-maximal induction) were estimated by non-linear regression of fold increase in CYP mRNA expression versus concentration plots.
The fold of vehicle control and the percent of positive control were calculated with the formulas below:
Fold of vehicle control = CYPs activity of test compound (or positive control) treated sample / CYPs activity of vehicle control treated sample
(§3) % of positive control = [(fold change in treated sample)-1] / [(fold change in positive control)-1] × 100
Based on the enzyme activity, a minimum of 2-fold increase compared to vehicle control for the positive control and ≥40% of the positive control for the test article was considered as the cutoff for a positive signal in in vitro induction assay.

[3] = test system: CYP1A2 mRNA; test: in vitro; details: human; for fold induction at 48 h, 50 µM: Gene expression Fold Induction
Protocol: as §2, §3
Based on the gene expression, a minimum of 4-fold increase of positive control compared to vehicle control, a minimum of 2-fold increase of the test article compared vehicle control and increased in a concentration-dependent manner was considered as the cutoff for a positive signal in in vitro induction assay.

[4] = ref FDA, 2021; cited from earlier work
[5] = among marketed PI3Kδ inhibitors; ref FDA, 2014; FDA, 2017, 2018, 2021; cited from earlier work
[6] = clinical trials; ref FDA, 2014; FDA, 2017, 2018, 2021; cited from earlier work
[7] = target: T1, BCRP (Homo sapiens, UniProt Q9UNQ0); test: in vitro; details: Caco-2
T1 sequence (Q9UNQ0 1-655): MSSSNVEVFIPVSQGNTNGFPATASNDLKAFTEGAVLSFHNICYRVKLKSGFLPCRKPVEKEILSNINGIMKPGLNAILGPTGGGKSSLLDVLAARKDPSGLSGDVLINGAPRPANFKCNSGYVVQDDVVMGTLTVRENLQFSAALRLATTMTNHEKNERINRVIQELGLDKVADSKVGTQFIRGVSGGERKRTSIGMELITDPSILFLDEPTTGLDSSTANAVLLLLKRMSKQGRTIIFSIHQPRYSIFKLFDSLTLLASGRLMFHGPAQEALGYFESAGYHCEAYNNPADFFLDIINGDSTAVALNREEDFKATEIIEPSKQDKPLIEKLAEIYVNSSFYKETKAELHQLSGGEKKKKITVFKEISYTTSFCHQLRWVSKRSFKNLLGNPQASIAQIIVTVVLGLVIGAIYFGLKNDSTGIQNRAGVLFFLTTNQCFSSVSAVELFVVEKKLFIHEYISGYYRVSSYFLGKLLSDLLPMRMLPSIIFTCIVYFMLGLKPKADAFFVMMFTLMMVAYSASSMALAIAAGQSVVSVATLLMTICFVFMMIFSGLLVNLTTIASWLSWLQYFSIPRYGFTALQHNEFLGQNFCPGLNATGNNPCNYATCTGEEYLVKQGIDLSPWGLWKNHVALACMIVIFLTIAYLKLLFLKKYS
Text: as §1

Chain of P-gp (P08183 whole entry): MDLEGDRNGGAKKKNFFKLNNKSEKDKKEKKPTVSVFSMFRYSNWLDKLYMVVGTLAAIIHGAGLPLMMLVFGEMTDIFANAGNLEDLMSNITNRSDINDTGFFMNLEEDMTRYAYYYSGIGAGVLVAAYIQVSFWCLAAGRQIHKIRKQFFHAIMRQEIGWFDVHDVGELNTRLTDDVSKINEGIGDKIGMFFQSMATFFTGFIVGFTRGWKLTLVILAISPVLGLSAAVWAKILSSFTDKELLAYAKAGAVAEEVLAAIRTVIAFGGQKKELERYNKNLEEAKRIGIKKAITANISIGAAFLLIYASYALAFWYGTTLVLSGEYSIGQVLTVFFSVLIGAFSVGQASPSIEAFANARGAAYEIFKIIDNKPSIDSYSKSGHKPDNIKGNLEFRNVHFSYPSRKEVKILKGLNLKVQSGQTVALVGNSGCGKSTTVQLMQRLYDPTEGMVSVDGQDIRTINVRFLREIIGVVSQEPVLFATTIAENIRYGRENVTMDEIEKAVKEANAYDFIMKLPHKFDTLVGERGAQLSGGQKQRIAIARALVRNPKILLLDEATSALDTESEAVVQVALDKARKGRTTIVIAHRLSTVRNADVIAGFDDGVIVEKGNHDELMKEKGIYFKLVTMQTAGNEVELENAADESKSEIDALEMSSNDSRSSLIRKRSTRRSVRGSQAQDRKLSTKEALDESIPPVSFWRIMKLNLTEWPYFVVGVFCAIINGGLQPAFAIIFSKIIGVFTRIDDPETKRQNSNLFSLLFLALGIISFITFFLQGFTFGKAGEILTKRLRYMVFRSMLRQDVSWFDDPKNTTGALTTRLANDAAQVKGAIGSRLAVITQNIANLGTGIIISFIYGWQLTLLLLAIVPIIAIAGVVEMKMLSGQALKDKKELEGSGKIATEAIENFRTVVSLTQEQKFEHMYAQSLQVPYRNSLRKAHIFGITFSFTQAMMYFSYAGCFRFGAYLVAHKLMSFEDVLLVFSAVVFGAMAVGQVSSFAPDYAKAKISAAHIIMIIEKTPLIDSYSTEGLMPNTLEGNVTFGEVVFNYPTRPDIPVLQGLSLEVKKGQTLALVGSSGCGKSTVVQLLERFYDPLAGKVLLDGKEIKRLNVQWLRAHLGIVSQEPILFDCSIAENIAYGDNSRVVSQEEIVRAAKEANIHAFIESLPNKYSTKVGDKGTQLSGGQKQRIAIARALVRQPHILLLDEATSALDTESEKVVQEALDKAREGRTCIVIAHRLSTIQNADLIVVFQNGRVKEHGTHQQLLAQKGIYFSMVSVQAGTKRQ

Which Papp B→A at 60 min, 5 µM [1] does the source give for `C[C@H]1O[C@@H](O[C@H]2[C@@H](O)C[C@H](O[C@H]3[C@@H](O)C[C@H](O[C@H]4CC[C@@]5(C)[C@H](CC[C@@H]6[C@@H]5C[C@@H](O)[C@]5(C)[C@@H](C7=CC(=O)OC7)CC[C@]65O)C4)O[C@@H]3C)O[C@@H]2C)C[C@H](O)[C@@H]1O` [Digoxin, reference compound] here?
The Papp B→A at 60 min, 5 µM was 25 ×10⁻⁶ cm/s.

What does the source list for `COc1ccc2[nH]c([S+]([O-])Cc3ncc(C)c(OC)c3C)nc2c1` (stereo not drawn) [Omeprazole]?
Enzyme activity Fold Induction ([2]; female, 48 h, 50 µM): 3.37 fold; fold induction at 48 h, 50 µM ([2]; female): 4.95; fold induction at 48 h, 50 µM ([2]; male): 5.22; Gene expression Fold Induction ([3]; female, 48 h, 50 µM): 25.5 fold; fold induction at 48 h, 50 µM ([3]; female): 15.6; fold induction at 48 h, 50 µM ([3]; male): 20.3

With `CC(C)Oc1ccc(-c2nn([C@@H](C)c3oc4ccc(F)cc4c(=O)c3-c3cccc(F)c3)c3ncnc(N)c23)cc1F` [umbralisib, Umbralisib] as the compound, how does the “exposure in the intestines versus plasma” value [4] read?
The value was 100 fold.

What about the Vz/F in human [5] of the same compound?
The Vz/F in human was “highest Vz/F among these drugs”.

And the “incidence of ≥Grade 3 GI toxicity, including diarrhea and colitis” value [6]?
The value was “higher than 10%”.

With `C[C@]12CC[C@@H]3c4ccc(OS(=O)(=O)O)cc4CC[C@H]3[C@@H]1CCC2=O` [E3S, Estrone-3-sulfate, reference compound] as the compound, how does the “Papp A-B of E3S” value [7] read?
The value was 2.79 ×10–^6 cm/s.

And the “Papp B-A of E3S” value [7]?
Its value is 77.8 ×10–^6 cm/s.
